Measured values taken from patent publication US20240216369A1, “THE USE OF A SPLICING MODULATOR FOR A TREATMENT SLOWING PROGRESSION OF HUNTINGTON'S DISEASE” (Novartis AG, priority 2019, published 2024).

How the values were obtained:
tHTT = assay: Mutant and total HTT multiplex HTRF assay in Q48 HTT human embryonic stem cell line: tHTT; format: cell-based; settings: Q48 HTT hESC, 48 hours
Procedure, shortened: (§1)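 Q48 HTT hESCs from HD donors were treated with compound for 48 h at 37 °C after 24 h adherence, then lysed. Lysates were read by multiplex HTRF with N-terminal donor, polyQ (MW1) and post-polyQ (MAB2166) antibodies for 4-6 h at RT. Donor/acceptor ratios give relative mHTT and tHTT; pIC50 reported.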

mHTT = assay: Mutant and total HTT multiplex HTRF assay in Q48 HTT human embryonic stem cell line: mHTT; format: cell-based; settings: Q48 HTT hESC, 48 hours
Procedure, shortened: as §1

Structure (SMILES) | tHTT pIC50 (tHTT) | Rating (based on mHTT potency) (mHTT) | mHTT pIC50 (mHTT)
COc1ccc(-c2ccc(-c3ccc(N(C)C4CC(C)(C)NC(C)(C)C4)nn3)c(O)c2)cn1 [Compound 67, 5-(6-methoxypyridin-3-yl)-2-(6-(methyl(2,2,6,6-tetramethylpiperidin-4-yl)amino)pyridazin-3-yl)phenol] | 6.452 | *** (a pIC50 value between 6.5 and 7.0 is indicated by three stars (***)) | 6.547
CN(c1ccc(-c2cc3ccc(OCCC(C)(C)O)cc3cc2O)nn1)C1CC(C)(C)NC(C)(C)C1 [Compound 68, 7-(3-hydroxy-3-methylbutoxy)-3-(6-(methyl(2,2,6,6-tetramethylpiperidin-4-yl)amino)pyridazin-3-yl)naphthalen-2-ol] | 6.488 | *** (a pIC50 value between 6.5 and 7.0 is indicated by three stars (***)) | 6.529
CC1CC(Oc2ccc(-c3ccc(-c4cn[nH]c4)cc3O)nn2)CC(C)N1 (stereo not shown) [Compound 69, 2-(6-((2,6-dimethylpiperidin-4-yl)oxy)pyridazin-3-yl)-5-(1H-pyrazol-4-yl)phenol] | 7.089 | **** (a pIC50 value between 7.0 and 7.5 is indicated by four stars (****)) | 7.1525
C[C@@H]1CC(Oc2ccc(-c3ccc(-n4cccn4)cc3O)nn2)C[C@@H](C)N1 (stereo partly drawn) [Compound 70, 2-(6-(((2R,6R)-2,6-dimethylpiperidin-4-yl)oxy)pyridazin-3-yl)-5-(1H-pyrazol-1-yl)phenol] | 5.806 | * (a pIC50 value between 5 and 6 is indicated by a single star (*)) | 5.999
Oc1ccc2cc(-c3ccc(C4CCNCC4)nn3)c(O)cc2c1 [Compound 71, 3-(6-(piperidin-4-yl)pyridazin-3-yl)naphthalene-2,7-diol] | 5.997 | * (a pIC50 value between 5 and 6 is indicated by a single star (*)) | 5.996
CC1(C)CC(Oc2ccc(-c3ccc(-n4cccn4)cc3O)nn2)CCN1 (stereo not shown) [Compound 72, 2-(6-((2,2-dimethylpiperidin-4-yl)oxy)pyridazin-3-yl)-5-(1H-pyrazol-1-yl)phenol] | 6.13 | ** (a pIC50 value between 6 and 6.5 is indicated by two stars (**)) | 6.21
Oc1cc(-c2cn[nH]c2)ccc1-c1ccc(N2C[C@H]3CNC[C@H]3C2)nn1 [Compound 74, 2-(6-((3aR,6aS)-hexahydropyrrolo[3,4-c]pyrrol-2(1H)-yl)pyridazin-3-yl)-5-(1H-pyrazol-4-yl)phenol] | 6.02 | ** (a pIC50 value between 6 and 6.5 is indicated by two stars (**)) | 6.03
COc1cc(-c2cnn(C)c2)ccc1-c1nnc(N2CC3(CCNCC3)C2)s1 [Compound 75, 2-(2-methoxy-4-(1-methyl-1H-pyrazol-4-yl)phenyl)-5-(2,7-diazaspiro[3.5]nonan-2-yl)-1,3,4-thiadiazole] | 6.4335 | ** (a pIC50 value between 6 and 6.5 is indicated by two stars (**)) | 6.4375
CN(c1nnc(-c2ccc(-c3cn[nH]c3)cc2F)s1)C1CC(C)(C)NC(C)(C)C1 [Compound 76, 5-(2-fluoro-4-(1H-pyrazol-4-yl)phenyl)-N-methyl-N-(2,2,6,6-tetramethylpiperidin-4-yl)-1,3,4-thiadiazol-2-amine] | 6.075 | ** (a pIC50 value between 6 and 6.5 is indicated by two stars (**)) | 6.0645
CN(c1nnc(-c2cc3cc(C#N)ccc3s2)s1)C1CC(C)(C)NC(C)(C)C1 [Compound 77, 2-(5-(methyl(2,2,6,6-tetramethylpiperidin-4-yl)amino)-1,3,4-thiadiazol-2-yl)benzo[b]thiophene-5-carbonitrile] | 6.1615 | ** (a pIC50 value between 6 and 6.5 is indicated by two stars (**)) | 6.137
CN(c1nnc(-c2cc3c(cc2O)C(=O)CC3)s1)C1CC(C)(C)NC(C)(C)C1 [Compound 78, 6-hydroxy-5-(5-(methyl(2,2,6,6-tetramethylpiperidin-4-yl)amino)-1,3,4-thiadiazol-2-yl)-2,3-dihydro-1H-inden-1-one] | 6.152 | ** (a pIC50 value between 6 and 6.5 is indicated by two stars (**)) | 6.264
Cc1cc(-c2ccc(-c3nnc(N(C)C4CC(C)(C)NC(C)(C)C4)s3)c(F)c2)[nH]n1 [Compound 79, 5-(2-fluoro-4-(3-methyl-1H-pyrazol-5-yl)phenyl)-N-methyl-N-(2,2,6,6-tetramethylpiperidin-4-yl)-1,3,4-thiadiazol-2-amine] | 6.01 | * (a pIC50 value between 5 and 6 is indicated by a single star (*)) | 5.9315
COc1cc(-c2cn[nH]c2)cc(F)c1-c1nnc(N(C)C2CC(C)(C)NC(C)(C)C2)s1 [Compound 80, 5-(2-fluoro-6-methoxy-4-(1H-pyrazol-4-yl)phenyl)-N-methyl-N-(2,2,6,6-tetramethylpiperidin-4-yl)-1,3,4-thiadiazol-2-amine] | 6.071 | ** (a pIC50 value between 6 and 6.5 is indicated by two stars (**)) | 6.2465
CN(c1ccc(-c2ccc3nccn3c2)nn1)C1CC(C)(C)NC(C)(C)C1 [Compound 81, 6-(imidazo[1,2-a]pyridin-6-yl)-N-methyl-N-(2,2,6,6-tetramethylpiperidin-4-yl)pyridazin-3-amine] | <5 |  | <5
Oc1cc2ccccc2cc1-c1ccc(CC2CCNCC2)nn1 [Compound 82, 3-(6-(piperidin-4-ylmethyl)pyridazin-3-yl)naphthalen-2-ol] | <5 |  | <5
